The test concerns HFD-induced obese mice. In words: Serum lipids (TC, TG, HDL, LDL). It is filed as in vivo, C57BL/6J mouse. To be noted: 12 weeks, mean ± SEM. The method, then:
During the experimental period, the experimental group had free access to diet and drinking water. […] The same volume of PBS was administered to the negative control group and the positive control group. […] All mice were gavaged once a week for 12 weeks.
Blood samples were collected after 12 weeks of treatment from two mice from each experimental group in centrifuge tubes containing EDTA. Blood was drawn by puncturing the orbit through the orbit and within the orbit. Samples were centrifuged at 1200× for 15 minutes and incubated at 4° C. for 10 minutes. Serum aspartate aminotransferase (AST), alanine aminotransferase (ALT), TC, high-density lipoprotein (HDL), low-density lipoprotein (LDL) and TG were analyzed in the serum supernatant using an appropriate assay kit (Green Cross Biopharmaceutical, Yongin, Korea). The same samples were also used for hormone measurements.

SMILES strings stand for the structures.

Molecule `CCC(C)(C)C(=O)O[C@H]1C[C@@H](C)C=C2C=C[C@H](C)[C@H](CC[C@@H]3C[C@@H](O)CC(=O)O3)[C@H]21` [Simvastatin] registered a TC of 51.50 ± 1.50 mg/dL and a TG of 30.00 ± 5.00 mg/dL.

These data come from patent US12397023B2, “Composition comprising Lactococcus chungangensis for prevention or treatment of fatty liver or metabolic syndrome” (CHUNG ANG UNIVERSITY INDUSTRY ACADEMIC COOPERATION …, priority 2018, dated 2025).
